Test results reported in patent EP0774460A1, “BENZOIC ACID COMPOUND AND USE THEREOF AS MEDICINE” (YOSHITOMI PHARMACEUTICAL INDUSTRIES, LTD., priority 1994, dated 1995).
Where two headings read alike, the source gives them in different places.

What was measured:
5-HT4 receptor = molecular target: T1, 5-HT4 receptor (Cavia porcellus, UniProt O70528); assay: 5-HT4 receptor binding test; design: species or system guinea pig
T1 construct: crude synapse membrane sample was prepared from guinea pig striatum; from tissue; host or cells: guinea pig striatum, crude synaptic membranes
Protocol: Experimental Example 1 : 5-HT4 receptor binding test
According to the method of C.J. Grossman et al. (British Journal of Pharmacology, vol. 109, pp. 618-624), a specific 5-HT4 receptor binding test was run using, as a tracer ligand, 1-methyl-1H-indole-3-carboxylic acid · 1-(2-methylsulfonylaminoethyl)-piperidin-4-ylmethyl ester substituted by tritium (hereinafter to be referred to as [3H]GR113808). Specifically, crude synapse membrane sample was prepared from guinea pig striatum, suspended in 50 mM HEPES buffer (pH 7.4) and used for testing. The test compound having several different concentrations and [3H]GR113808 (final concentration 0.1 nM) were added to this suspension and allowed to react at 37°C. Thirty minutes later, the reaction mixture was filtered by suction with cell harvester. The filter was washed with 50 mM HEPES buffer, and the radioactivity on the filter was counted by liquid scintillation counter. The non-specific binding was determined in the presence of 1 µM GR113808. The concentration of the test compound necessary for 50% inhibition (IC50) and Ki value were determined from graph.

5-HT3 receptor = molecular target: T2, 5-HT3 receptor (Rattus norvegicus, UniProt P35563); assay: 5-HT3 receptor binding test; details: for Ki: cells without asterisk, read-out: Affinity for receptor (Ki value, nM) 5-HT3
T2 construct: crude synapse membrane sample was prepared from rat cerebral cortex; from tissue; host or cells: rat cerebral cortex, crude synaptic membranes
T2 sequence (P35563 24-483): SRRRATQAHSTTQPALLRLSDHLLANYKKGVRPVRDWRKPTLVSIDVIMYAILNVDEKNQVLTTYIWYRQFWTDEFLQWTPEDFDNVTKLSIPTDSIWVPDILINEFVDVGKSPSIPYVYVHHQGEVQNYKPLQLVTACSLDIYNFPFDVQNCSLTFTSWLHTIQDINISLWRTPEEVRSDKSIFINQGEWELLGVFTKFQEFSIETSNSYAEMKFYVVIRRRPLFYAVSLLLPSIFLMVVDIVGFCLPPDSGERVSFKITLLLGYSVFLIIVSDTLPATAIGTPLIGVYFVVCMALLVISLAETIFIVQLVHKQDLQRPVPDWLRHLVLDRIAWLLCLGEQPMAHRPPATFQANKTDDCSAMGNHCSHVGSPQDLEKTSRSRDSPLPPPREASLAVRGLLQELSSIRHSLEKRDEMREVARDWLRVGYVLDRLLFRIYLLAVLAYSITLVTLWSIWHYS
Protocol: Experimental Example 2 : 5-HT3 receptor binding test
According to the method of Peroutka et al (European Journal of Pharmacology, vol. 148, pp. 297-299), a specific 5-HT3 receptor binding test was run using, as a tracer ligand, endo-1-methyl-N-(9-methyl-9-azabicyclo[3.3.1]non-3-yl)-1H-indazole-3-carboxamide substituted by tritium (hereinafter to be referred to as [3H]Granisetron). Specifically, crude synapse membrane sample was prepared from rat cerebral cortex, suspended in 50 mM HEPES buffer (pH 7.4) and used for testing. The test compound having several different concentrations and [3H]Granisetron (final concentration 1.0 nM) were added to this suspension and allowed to react at 25°C. Thirty minutes later, the reaction mixture was filtered by suction with cell harvester. The filter was washed with 50 mM Tris buffer (pH 7.4), and the radioactivity on the filter was counted using liquid scintillation counter or β-plate. The non-specific binding was determined in the presence of 1 µM Tropisetron. The concentration of the test compound necessary for 50% inhibition (IC50) and Ki value were determined from graph.

[1] = molecular target: isolated guinea pig ascending colon (Cavia porcellus, UniProt O70528); assay: contraction of isolated guinea pig ascending colon; assay type: cell-based; details: male Hartley guinea pig ascending colon, Tyrode solution 37°C, relative to methacholine (30 µM) contraction; read-out: Contraction of removed colon (EC50)
Protocol: Experimental Example 3 : contraction of isolated guinea pig ascending colon
About 3 cm long ascending colon segment was taken from male Hartley guinea pig and suspended in 10 ml of a Tyrode solution ventilated with a mixed gas of oxygen (95%) and CO2 (5%) at 37°C with the load of 2 g. The contraction was isotonically measured via isotonic transducer. After an equilibrium period of about 30 min, the test compound was administered non-cumulatively from lower concentrations, and dose-dependent contraction was measured. The test compound was administered at 15 minutes intervals. Then, contraction by the test compound in the presence of a 5-HT4 receptor antagonist, 4-amino-3-chloro-6-methoxybenzoic acid · 2-diethylaminoethyl ester (0.3 µM, hereinafter to be referred to as SDZ 205-557) was determined, and antagonistic effect on the reaction by SDZ 205-557 was confirmed.
The contraction by the test compound was evaluated based on the ratio of reaction relative to mean contraction induced by methacholine (30 µM) administered before and after each determination of dose-dependent contraction. The contraction was probit-converted using the maximum value of dose-response curve as 100, and expressed by EC50 as determined from linear regression and maximum reaction ratio.

[2] = [3H]GR113808 0.1 nM, crude synapse membrane from guinea pig striatum, 37°C, read-out: Affinity for receptor (Ki value, nM) 5-HT4
[3] = [3H]Granisetron 1.0 nM, crude synapse membrane from rat cerebral cortex, 25°C, cells marked * are IC50, read-out: Affinity for receptor 5-HT3 (∗ shows IC50)
[4] = [3H]Granisetron 1.0 nM, crude synapse membrane from rat cerebral cortex, 25°C

T1 sequence (O70528 whole entry): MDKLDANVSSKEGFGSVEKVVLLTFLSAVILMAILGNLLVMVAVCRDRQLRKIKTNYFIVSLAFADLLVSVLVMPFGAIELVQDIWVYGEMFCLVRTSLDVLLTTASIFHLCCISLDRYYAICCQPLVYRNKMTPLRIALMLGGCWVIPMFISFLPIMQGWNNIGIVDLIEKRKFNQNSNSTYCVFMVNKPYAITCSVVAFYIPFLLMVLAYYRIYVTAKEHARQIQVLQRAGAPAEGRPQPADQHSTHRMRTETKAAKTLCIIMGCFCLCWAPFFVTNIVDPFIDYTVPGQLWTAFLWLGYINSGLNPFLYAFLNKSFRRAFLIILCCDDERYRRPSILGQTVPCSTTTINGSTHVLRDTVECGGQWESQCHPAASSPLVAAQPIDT
isolated guinea pig ascending colon, sequence (O70528 whole entry): as above

| SMILES | Ki (5-HT4 receptor; [2]) | IC50 (5-HT3 receptor; [3]) | EC50 [1] | Ki (5-HT3 receptor; [4]) | Ki (5-HT4 receptor) | IC50 (5-HT3 receptor) |
| --- | --- | --- | --- | --- | --- | --- |
| COc1cc(N)c(Cl)cc1C(=O)NC[C@H]1CCN(CCCNC(=O)c2ccccc2)C1 [Example 11, 4-amino-N-((3R)-1-(3-benzoylaminopropyl)pyrrolidin-3-ylmethyl)-5-chloro-2-methoxybenzamide] | 6.2 nM | > 1000 nM |  |  |  |  |
| COc1cc(N)c(Cl)cc1C(=O)NCC1CCN(CCCNC(=O)c2ccc(Cl)cc2)C1 (stereo not drawn) [Example 13, 4-amino-5-chloro-N-(1-(3-(4-chlorobenzoylamino)propyl)pyrrolidin-3-ylmethyl)-2-methoxybenzamide] | 3.1 nM | > 1000 nM |  |  |  |  |
| COc1cc(N)c(Cl)cc1C(=O)NCC1CCN(CCCNC(=O)c2ccc(C)cc2)C1 (stereo not drawn) [Example 17, 4-amino-5-chloro-2-methoxy-N-(1-(3-(4-methylbenzoylamino)propyl)pyrrolidin-3-ylmethyl)benzamide] | 3.1 nM | > 1000 nM |  |  |  |  |
| COc1cc(N)c(Cl)cc1C(=O)NCC1CCN(CCCNC(=O)c2cccs2)C1 (stereo not drawn) [Example 19, 4-amino-5-chloro-2-methoxy-N-(1-(3-(2-thiophenecarbonylamino)propyl)pyrrolidin-3-ylmethyl)benzamide] | 4.4 nM | > 1000 nM |  |  |  |  |
| COc1cc(N)c(Cl)cc1C(=O)NC[C@H]1CCN(CCCCNC(=O)c2cccc3ccccc23)C1 [Example 22, 4-amino-5-chloro-2-methoxy-N-((3R)-1-(4-(1-naphthoylamino)butyl)pyrrolidin-3-ylmethyl)benzamide] | 1.3 nM | > 1000 nM | 3.3 nM |  |  |  |
| COc1cc(N)c(Cl)cc1C(=O)NCC1CCN(CCCCNC(=O)c2cccc3ccccc23)CC1 [Example 24, 4-amino-5-chloro-2-methoxy-N-(1-(4-(1-naphthoylamino)butyl)piperidin-4-ylmethyl)benzamide] | 1.6 nM | > 1000 nM | 3.9 nM |  |  |  |
| COc1cc(N)c(Cl)cc1C(=O)NCC1CCN(CCCCNC(=O)c2ccc3ccccc3c2)CC1 [Example 25, 4-amino-5-chloro-2-methoxy-N-(1-(4-(2-naphthoylamino)butyl)piperidin-4-ylmethyl) benzamide] | 1.4 nM | > 1000 nM | 4.6 nM |  |  |  |
| COc1cc(N)c(Cl)cc1C(=O)NC[C@H]1CCN(CCCCCNC(=O)c2ccccc2)C1 [Example 27, 4-amino-N-((3R)-1-(5-benzoylaminopentyl)pyrrolidin-3-yl-methyl)-5-chloro-2-methoxybenzamide] | 2.2 nM | > 1000 nM | 5.3 nM |  |  |  |
| COc1cc(N)c(Cl)cc1C(=O)NCC1CCN(CCCCCNC(=O)c2ccccc2)CC1 [Example 29, 4-amino-N-(1-(5-benzoylaminopentyl)piperidin-4-ylmethyl)-5-chloro-2-methoxybenzamide] | 1.7 nM | > 1000 nM | 3.7 nM |  |  |  |
| COc1cc(N)c(Cl)cc1C(=O)NCC1CCN(CCCCCNC(=O)c2cccc(Cl)c2)CC1 [Example 30, 4-amino-5-chloro-N-(1-(5-(3-chlorobenzoylamino)pentyl)piperidin-4-ylmethyl)-2-methoxybenzamide] | 0.81 nM | > 1000 nM | 1.6 nM |  |  |  |
| COc1cc(N)c(Cl)cc1C(=O)NCC1CCN(CCCCCNC(=O)c2ccc(C)cc2)CC1 [Example 31, 4-amino-5-chloro-N-(1-(5-(4-methylbenzoylamino)pentyl)piperidin-4-ylmethyl)-2-methoxybenzamide] | 2.3 nM | > 1000 nM |  |  |  |  |
| CCCNC(=O)NCCCCN1CCC(CNC(=O)c2cc(Cl)c(N)cc2OC)CC1 [Example 45, 4-amino-5-chloro-2-methoxy-N-(1-(4-(3-n-propylureido)butyl)piperidin-4-ylmethyl)benzamide] | 5.5 nM | > 1000 nM |  |  |  |  |
| CCCNC(=O)NCCCCCN1CC[C@H](CNC(=O)c2cc(Cl)c(N)cc2OC)C1 [Example 46, 4-amino-5-chloro-2-methoxy-N-((3R)-1-(5-(3-n-propylureido)pentyl)pyrrolidin-3-ylmethyl)benzamide] | 1.5 nM | > 1000 nM | 6.9 nM |  |  |  |
| CCCNC(=O)NCCCCCN1CCC(CNC(=O)c2cc(Cl)c(N)cc2OC)CC1 [Example 48, 4-amino-5-chloro-2-methoxy-N-(1-(5-(3-n-propylureido)pentyl)piperidin-4-ylmethyl)benzamide] | 2.1 nM | > 1000 nM | 4.8 nM |  |  |  |
| COc1cc(N)c(Cl)cc1C(=O)NC[C@H]1CCN(CCCCCNC(=O)Nc2ccccc2)C1 [Example 56, 4-amino-5-chloro-2-methoxy-N-((3R)-1-(5-(3-phenylureido)pentyl)pyrrolidin-3-ylmethyl)benzamide] | 0.65 nM | > 1000 nM | 1 nM |  |  |  |
| COc1cc(N)c(Cl)cc1C(=O)NCC1CCN(CCCCCNC(=O)Nc2ccc(Cl)cc2)CC1 [Example 59, 4-amino-5-chloro-N-(1-(5-(3-(4-chlorophenyl)ureido)pentyl)-piperidin-4-ylmethyl)-2-methoxybenzamide] | 1.1 nM |  |  | 190 nM |  |  |
| COc1cc(N)c(Cl)cc1C(=O)NCC1CCN(CCCC(=O)Nc2ccccc2)C1 (stereo not drawn) [Example 71, 4-amino-5-chloro-2-methoxy-N-(1-(3-phenylcarbamoylpropyl)pyrrolidin-3-ylmethyl)benzamide] | 7.4 nM | > 1000 nM |  |  |  |  |
| COc1cc(N)c(Cl)cc1C(=O)NCCCCCN1CC[C@H](CNC(=O)c2cc(Cl)c(N)cc2OC)C1 [Example 78, 4-amino-N-((3R)-1-(5-(4-amino-5-chloro-2-methoxybenzoylamino)pentyl)pyrrolidin-3-ylmethyl)-5-chloro-2-methoxybenzamide] | 1.4 nM |  |  | 370 nM |  |  |
| COc1cc(N)c(Cl)cc1C(=O)NC[C@H]1CCN(CCCCNC(=O)c2cn(C(C)C)c3ccccc23)C1 [Example 94, N-(4-((3R)-3-(4-amino-5-chloro-2-methoxybenzoylaminomethyl)pyrrolidin-1-yl)butyl)-1-isopropyl-1H-indole-3-carboxamide] |  |  |  |  | 3.5 nM | > 1000 nM |
| COc1cc(N)c(Cl)cc1C(=O)NC[C@H]1CCN(CCCCNC(=O)c2cn(Cc3ccccc3)c3ccccc23)C1 [Example 95, N-(4-((3R)-3-(4-amino-5-chloro-2-methoxybenzoylaminomethyl)pyrrolidin-1-yl)butyl)-1-benzyl-1N-indole-3-carboxamide] | 1.2 nM | > 1000 nM |  |  |  |  |
| COc1cc(N)c(Cl)cc1C(=O)NC[C@H]1CCN(CCNC(=O)CCCc2ccccc2)C1 [Example 100, 4-amino-5-chloro-2-methoxy-N-((3R)-1-(2-(4-phenylbutyrylamino)ethyl)pyrrolidin-3-ylmethyl)benzamide] | 5.3 nM | > 1000 nM |  |  |  |  |
